Data on one molecule can be found in US12560591B2, “Methods of treatment with CD8 T cell-mediated immune therapy” (Providence Health & Services—Oregon, priority 2019, dated 2026).

One assay deals with CT26 tumors. The assay is described as follows: CT26 tumor model: ALK5 inhibitor with chemoradiation (RT+5FU), tumor growth and survival. The format is in vivo, mouse. The conditions noted are these: CT26 tumor-bearing mice, LY added to RT+5FU, FIG. 1B. The method, then: (§1) FIGS. 1A-1D are a series of panels showing that the TGFβR1 antagonist LY2157299 enhances chemo-radiation efficacy dependent on CD8α^+ cells in CT26 tumors. FIG. 1A is a treatment schema in the CT26 tumor model. Six to eight week old BALB/c mice were implanted subcutaneously in the left flank with 2×10^5 CT26 tumor cells. Seven days following implant, animals were randomized based on tumor size, and vehicle control or LY2157299 compound were administered by oral gavage twice daily every 12 hours at 150 mg/kg for 7 consecutive days. At day 14, some mice received five consecutive radiation treatments of 5 Gy targeted to tumor tissue along with 25 mg/kg injections of 5-fluorouracil (5FU) chemotherapy administered intraperitoneally on days 14, 16, and 18. LY treatment groups resumed BID oral dosing from days 21-27. Mean tumor growth (i) and survival (ii) were assessed three times per week up to 100 days or death (FIG. 1B). […] Arrows identify pSMAD2^+CD8^+ cells in vehicle mice. […] NS=not significant, *=p<0.05, **=p<0.01, ***=p<0.001.
FIGS. 6A-6D are a series of panels showing generation of tumor-specific immune memory following tumor eradication with TGFβ inhibition with chemoradiation. […] The number of mice cured over the total number of mice in each group is indicated in the top right corner. One representative experiment is shown reflective of two independent experiments. Mice who eradicated their tumors were rechallenged with CT26 and 4T1 tumors. CT26 tumor cells were rechallenged on the opposite flank as from the original cured tumor. In FIG. 6D, 4T1 and CT26 tumor establishment and growth was followed for up to 60 days post re-challenge. The number of tumors rejected per total mice rechallenged in each tumor type is indicated in the top right portion of the graph. ***=p<0.001
Animal studies and cell culture: C57BL/6, BALB/c, CD8Cre, Lyz2Cre, and Foxp3-eGFP-CreERT2 mice were purchased from the Jackson Laboratories (Bar Harbor, Maine). ALK5flox/flox mice were a generous gift from Andrew Weinberg (Providence Cancer Center). All transgenic mice were on C57BL/6 background. CT26, MC38, 4T1 and MCA205-OVA tumor cells were grown in DMEM medium supplemented with 10% heat-inactivated fetal bovine serum and 1% penicillin-streptomycin to 60-90% confluence prior to tumor implantation. All cells were washed 2× with 1×PBS and implanted subcutaneously in a 100 μl volume of 1×PBS in the lower flanks. 1×10^5 MC38 cells, 2×10^5 CT26 cells, 5×10^4 4 T1 cells, and 5×10^6 MCA205-OVA cells were used for tumor induction. Tumors were measured 3×/week until they reached the survival end-point of 144 mm^2. […] Following single cell preparation, cells were washed and resuspended in FACS buffer (1×PBS, 1% BSA, 2 mM EDTA) and counted prior to FACS staining using a Guava EasyCyte cytometer (Millipore). […]

Assay [1] has as its system Smad2 (ALK5 signaling) in tumor tissue. The assay is described as follows: phospho-SMAD2 / CD8a co-immunofluorescence of tumor sections at day 14. The format is in vivo, mouse. The conditions noted are these: day 14, one day post-LY treatment, specifically in CD8α^+ cells, FIG. 1C. The method, then:
as §1
Immunofluorescence: Human rectal cancer biopsies were fixed in 10% NBF overnight and mouse tumors were fixed in zinc fixative overnight prior to tissue processing and paraffin embedding followed by sectioning cut at 5 microns for immunofluorescent staining. […]
Production of TGFβ by cells within the tumor was evaluated.

In another assay the target is T1, ALK4 (Homo sapiens, UniProt P36896).
T1 sequence (P36896 24-505): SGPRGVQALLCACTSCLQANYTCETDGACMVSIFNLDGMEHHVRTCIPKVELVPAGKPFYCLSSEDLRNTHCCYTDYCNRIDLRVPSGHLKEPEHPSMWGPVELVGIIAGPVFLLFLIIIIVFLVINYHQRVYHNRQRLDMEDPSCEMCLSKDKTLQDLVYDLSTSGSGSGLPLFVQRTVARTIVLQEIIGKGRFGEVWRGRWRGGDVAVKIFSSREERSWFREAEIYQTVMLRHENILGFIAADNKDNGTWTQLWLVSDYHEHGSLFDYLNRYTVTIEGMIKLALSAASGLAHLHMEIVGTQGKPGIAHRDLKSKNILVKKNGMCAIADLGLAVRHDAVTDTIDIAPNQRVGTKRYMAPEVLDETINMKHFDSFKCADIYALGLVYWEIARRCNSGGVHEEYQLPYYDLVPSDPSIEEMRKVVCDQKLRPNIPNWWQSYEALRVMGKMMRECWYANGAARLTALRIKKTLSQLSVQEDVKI
Particulars: reported in Lahn et al., Drug Des. Devel. Ther. 2015; cited from earlier work.

Molecules are shown by their SMILES.

For the molecule `Cc1cccc(-c2nn3c(c2-c2ccnc4ccc(C(N)=O)cc24)CCC3)n1` [LY2157299], the median survival with CT26 tumors (150 mg/kg BID oral, p<0.01) was 45 days. For the same molecule, the tumor growth entry in the assay with CT26 tumors is on record as “significantly slowed tumor growth”. Moreover, the “phosphorylation and nuclear translocation of Smad2 in tumor sections” value in assay [1] was “reduced phosphorylation and nuclear translocation”. Also, the “Kd for ALK4 compared with ALK5” value on ALK4 was “lower Kd for ALK4 than ALK5”.
